Laboratory results reported in patent US7915297B2, “Isoxazole derivatives and use thereof” (SK Holdings Co., Ltd., priority 2005, dated 2011).

Legend:
[1] = test system: Wnt/β-catenin signaling (β-catenin activity) in SW480 cell line; test: Cell-based Wnt agonist screening, TCF luciferase reporter, SW480 (TCF-FL); set-up: species or system human; conditions: Homo sapiens, % of LiCl (20 mM), 24 h, read-out: Max. Activity (%); for Emax at 120 µM: Con. 120 μM; for Emax at 30 µM: Con. 30 μM; for Emax at 10 µM: Con. 10 μM; for Emax at 1 µM: Con. 1 μM
In short: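 HEK293 and SW480 lines stably carried a 5X TCF firefly luciferase reporter under G418 selection. Cells (8,000–15,000/well, RPMI 1640 with 5% FBS) were grown 24 h, then treated with compound for 24 h. Luciferase activity was expressed as percent of the 20 mM LiCl positive control.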

[2] = test system: ST-2, a murine bone marrow stromal T cell; test: Differentiation of ST2 cell line into osteoblasts, alkaline phosphatase activity; type: cell-based; conditions: Mus musculus, 96 h; ST-2 cells, 11 μM compound, 4 days; control treated only with ascorbic acid and β-glycerolphosphate = 100; read-out: ALP Activity (% Control)
Description: The derivatives synthesized according to the present invention were assayed for their ability to differentiate stem cells into osteoblasts. In this regard, ST-2, a murine bone marrow stromal T cell, was used to measure the activity of bone-specific alkaline phosphatase, a marker of early-stage osteoblast differentiation. In detail, the cell line was cultured in an MEM supplemented with penicillin-streptomycin (100 Units/mL) and heat-inactivated 5% fetal bovine serum under standard culture conditions (5% CO2, 37° C., 100% relative humidity). […] The suspension was diluted with the same medium to adjust the cell count to 5,000˜10,000 cells per well, and was moved in a 96-well microtiter, subsequently. After being incubated for 24 hrs, the cells were treated in a medium containing 50 μg/ml of ascorbic acid and 5 mM of β-glycerolphosphate with various concentrations of the isoxazole derivatives synthesized in Preparation Examples. During incubation for one to nine days, the Alkaline phosphatase activity was analyzed using a […] Assay kit (Promega, U.S.A.) according to the protocol described in the manual provided by the manufacturer. The activities were measured in cells which had been incubated at 11 μM of each of the compounds for 4 days. Data on the activities of the isoxazole derivatives synthesized are given in Tables 44 to 47 and are expressed as percentages of ALP relative to that measured in the control, which was treated only with ascorbic acid and β-glycerolphosphate. ALP activities according to the concentrations of Derivative (1) are depicted in FIG. 5.

Cc1ccc(N2CCN(CCNC(=O)c3cc(-c4ccco4)on3)CC2)cc1 [Derivative (183), 5-furan-2-yl-isoxazole-3-carboxylic acid {2-[4-(4-methylphenyl)-piperazin-1-yl]-ethyl}-amide]
Emax at 120 µM [1]: 114% | activity at 11 µM [2]: 127%

O=C(CCNC(=O)c1cc(-c2cccs2)on1)c1ccccc1 [Derivative (206), 5-thiophen-2-yl-isoxazole-3-carboxylic acid (3-oxo-3-phenyl-propyl)-amide]
Emax at 120 µM [1]: 584% | activity at 11 µM [2]: 772%

O=C(NCCn1cncn1)c1cc(N2CCOCC2)on1 [Derivative (163), 5-morpholin-4-yl-isoxazole-3-carboxylic acid (2-[1,2,4]-triazol-1-yl-ethyl)-amide]
Emax at 120 µM [1]: 34% | activity at 11 µM [2]: 166%

Cc1nccn1CCCNC(=O)c1cc(-c2ccco2)on1 [Derivative (44), 5-furan-2-yl-isoxazole-3-carboxylic acid [3-(2-methyl-imidazol-1-yl)-propyl]-amide]
Emax at 120 µM [1]: 657% | activity at 11 µM [2]: 997%

O=C(NCCCn1cncn1)c1cc(-c2cc3ccccc3o2)on1 [Derivative (170), 5-benzofuran-2-yl-isoxazole-3-carboxylic acid (3-[1,2,4]triazol-1-yl-propyl)-amide]
Emax at 30 µM [1]: 46% | activity at 11 µM [2]: 74%

COc1ccccc1N1CCN(CCNC(=O)c2cc(-c3ccco3)on2)CC1 [Derivative (193), 5-furan-2-yl-isoxazole-3-carboxylic acid {2-[4-(2-methoxyphenyl)-piperazin-1-yl]-ethyl}-amide]
Emax at 30 µM [1]: 382% | activity at 11 µM [2]: 173%

Cn1cccc1-c1cc(C(=O)NCCCn2ccnc2)no1 [Derivative (149), 5-(1-methyl-1H-pyrrol-2-yl)-isoxazole-3-carboxylic acid (3-imidazol-1-yl-propyl)-amide]
Emax at 30 µM [1]: 70% | activity at 11 µM [2]: 275%

O=C(NCCn1cnnn1)c1cc(-c2ccco2)on1 [Derivative (43), 5-furan-2-yl-isoxazole-3-carboxylic acid (2-tetrazol-1-yl-ethyl)-amide]
Emax at 120 µM [1]: 357% | activity at 11 µM [2]: 455%

COc1cccc(N2CCN(CCNC(=O)c3cc(-c4ccco4)on3)CC2)c1 [Derivative (185), 5-furan-2-yl-isoxazole-3-carboxylic acid {2-[4-(3-methoxyphenyl)-piperazin-1-yl]-ethyl}-amide]
Emax at 30 µM [1]: 810% | activity at 11 µM [2]: 714%

O=C(NCCN(c1ccccc1)c1ccccc1)c1cc(-c2ccco2)on1 [Derivative (196), 5-furan-2-yl-isoxazole-3-carboxylic acid (2-diphenylamino-ethyl)-amide]
Emax at 30 µM [1]: 35% | activity at 11 µM [2]: 77%

Cn1cccc1-c1cc(C(=O)NCCCn2cncn2)no1 [Derivative (150)]
Emax at 30 µM [1]: 78% | activity at 11 µM [2]: 328%

CC(C)(C)c1cc(C(=O)NCCCn2cncn2)no1 [Derivative (168), 5-tert-butyl-3-isoxazole-3-carboxylic acid (3-[1,2,4]-triazol-1-yl-propyl)-amide]
Emax at 10 µM [1]: 40% | activity at 11 µM [2]: 97%

O=C(NCCN1CCN(c2ccc(Cl)cc2)CC1)c1cc(-c2ccco2)on1 [Derivative (184), 5-furan-2-yl-isoxazole-3-carboxylic acid {2-[4-(4-chlorophenyl)-piperazin-1-yl]-ethyl}-amide]
Emax at 30 µM [1]: 70% | activity at 11 µM [2]: 126%

COc1ccc(N2CCN(CCNC(=O)c3cc(-c4ccco4)on3)CC2)c(OC)c1 [Derivative (187), 5-furan-2-yl-isoxazole-3-carboxylic acid {2-[4-(2,4-dimethoxyphenyl)-piperazin-1-yl]-ethyl}-amide]
Emax at 120 µM [1]: 179% | activity at 11 µM [2]: 99%

O=C(NCCCn1cncn1)c1cc(N2CCOCC2)on1 [Derivative (162), 5-morpholin-4-yl-isoxazole-3-carboxylic acid (3-[1,2,4]-triazol-1-yl-propyl)-amide]
Emax at 10 µM [1]: 30% | activity at 11 µM [2]: 60%

O=C(CNC(=O)c1cc(-c2ccco2)on1)c1ccccc1 [Derivative (205), 5-furan-2-yl-isoxazole-3-carboxylic acid (2-oxo-2-phenyl-ethyl)-amide]
Emax at 10 µM [1]: 59% | activity at 11 µM [2]: 58%

O=C(NCCN1CCOCC1)c1cc(-c2ccco2)on1 [Derivative (175), 5-furan-2-yl-isoxazole-3-carboxylic acid (2-morpholin-4-yl-ethyl)-amide]
Emax at 1 µM [1]: 383% | activity at 11 µM [2]: 767%

O=C(CNC(=O)c1cc(-c2ccco2)on1)Nc1ccccn1 [Derivative (208), 5-furan-2-yl-isoxazole-3-carboxylic acid (pyridin-2-ylcarbamoylmethyl)-amide]
Emax at 30 µM [1]: 110% | activity at 11 µM [2]: 57%

O=C(NCCCn1ccnc1)c1cc(-c2cc3ccccc3o2)on1 [Derivative (169), 5-benzofuran-2-yl-isoxazole-3-carboxylic acid (3-imidazol-1-yl-propyl)-amide]
Emax at 1 µM [1]: 43% | activity at 11 µM [2]: 83%

O=C(NCCN1CCN(c2ncccn2)CC1)c1cc(-c2ccco2)on1 [Derivative (192), 5-furan-2-yl-isoxazole-3-carboxylic acid [2-(4-pyrimidin-2-yl-piperazin-1-yl)-ethyl]-amide]
Emax at 30 µM [1]: 137% | activity at 11 µM [2]: 398%

CN(CCNC(=O)c1cc(-c2ccco2)on1)c1ccccc1 [Derivative (202), 5-furan-2-yl-isoxazole-3-carboxylic acid [2-(methyl-phenyl-amino)-ethyl]-amide]
Emax at 30 µM [1]: 185% | activity at 11 µM [2]: 109%

O=C(NCCSc1ccccc1)c1cc(-c2cccs2)on1 [Derivative (218), 5-thiophen-2-yl-isoxazole-3-carboxylic acid (2-phenylsulfanyl-ethyl)-amide]
Emax at 30 µM [1]: 55% | activity at 11 µM [2]: 128%

O=C(CNC(=O)c1cc(-c2ccco2)on1)Nc1ccccc1 [Derivative (207), 5-furan-2-yl-isoxazole-3-carboxylic acid phenylcarbamoylmethyl-amide]
Emax at 120 µM [1]: 34% | activity at 11 µM [2]: 47%

O=C(NCCNCc1ccccc1)c1cc(-c2ccco2)on1 [Derivative (197), 5-furan-2-yl-isoxazole-3-carboxylic acid (2-benzylamino-ethyl)-amide]
Emax at 120 µM [1]: 84% | activity at 11 µM [2]: 118%

CN(CCCNC(=O)c1cc(-c2ccco2)on1)c1ccccc1 [Derivative (203), 5-furan-2-yl-isoxazole-3-carboxylic acid [3-(methyl-phenyl-amino)-propyl]-amide]
Emax at 30 µM [1]: 851% | activity at 11 µM [2]: 260%

O=C(NCCCn1cncn1)c1cc(-c2ccc[nH]2)on1 [Derivative (159), 5-(1H-pyrrol-2-yl)-isoxazole-3-carboxylic acid (3-[1,2,4]triazol-1-yl-propyl)-amide]
Emax at 30 µM [1]: 128% | activity at 11 µM [2]: 130%

O=C(NCCN1CCNCC1)c1cc(-c2ccco2)on1 [Derivative (176), 5-furan-2-yl-isoxazole-3-carboxylic acid (2-piperazin-1-yl-ethyl)-amide]
Emax at 30 µM [1]: 93% | activity at 11 µM [2]: 179%

O=C(NCCc1ccc(O)cc1)c1cc(-c2cccs2)on1 [Derivative (141), 5-thiophen-2-yl-isoxazole-3-carboxylic acid [2-(4-hydroxy-phenyl)-ethyl]-amide]
Emax at 120 µM [1]: 519% | activity at 11 µM [2]: 790%

O=C(NCCOc1ccccc1)c1cc(-c2cccs2)on1 [Derivative (215), 5-thiophen-2-yl-isoxazole-3-carboxylic acid (2-phenoxy-ethyl)-amide]
Emax at 30 µM [1]: 90% | activity at 11 µM [2]: 162%

O=C(NCCNC(=O)c1cc(-c2cccs2)on1)Nc1ccccc1 [Derivative (211), 5-thiophen-2-yl-isoxazole-3-carboxylic acid [2-(3-phenyl-urido)-ethyl]-amide]
Emax at 30 µM [1]: 158% | activity at 11 µM [2]: 204%

COc1ccc(N2CCN(CCNC(=O)c3cc(-c4ccco4)on3)CC2)cc1 [Derivative (181), 5-furan-2-yl-isoxazole-3-carboxylic acid {2-[4-(4-methoxyphenyl)-piperazin-1-yl]-ethyl}-amide]
Emax at 1 µM [1]: 73% | activity at 11 µM [2]: 681%

O=C(NCCCn1ccnc1)c1cc(-c2ccc[nH]2)on1 [Derivative (160), 5-(1H-pyrrol-2-yl)-isoxazole-3-carboxylic acid (3-imidazol-1-yl-propyl)-amide]
Emax at 120 µM [1]: 146% | activity at 11 µM [2]: 158%
